# Measurements reported in patent US20150315218A1, “SALTS OF PRODRUGS OF PIPERAZINE AND SUBSTITUTED PIPERIDINE ANTIVIRAL AGENTS” (Bristol-Myers Squibb Company, priority 2004, published 2015).
# “Also recorded” adds a separate entry of the source. Structures can show the parent of a compound that is named as a salt. Where two headings read alike, the source gives them in different places.
# Columns and labels:
# [1] = Single-dose toxicokinetic and tolerability study of prodrugs in dogs; assay type: in vivo, dog; conditions: for AUC(0-inf) / concentration at 24 h / Cmax: dog, plasma; for concentration at 24 h: read-out: C24h
# Procedure, shortened: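 Female dogs (two/group) received prodrug Iab orally once daily at 24, 90 or 240 mg/kg (free acid) as aqueous solution or dry-filled capsules, one-week washouts between doses. Ibb and Icb given to one dog/sex/group as capsules, then aqueous 25 mg/kg or capsules 46 or 125 mg/kg BID. Clinical signs, body weight, food intake and plasma toxicokinetics monitored.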
# [2] = IV and PO pharmacokinetic studies of prodrug salts (Iab, Ibb, Icb) in the rat, with historical parent data; assay type: in vivo, Sprague-Dawley rats; conditions: for Cmax: read-out: Cmax
# Procedure, shortened: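 Male Sprague-Dawley rats (300-350 g, jugular-cannulated; fasted overnight for PO) received mono-lysine prodrug salts in distilled water: IV bolus over 0.5 min at 1.4 mg/kg free acid, PO gavage at 7.9 mg/kg (Iab) or 6.9 mg/kg (Icb) free acid, n=3. Plasma parameters by non-compartmental analysis; oral bioavailability from dose-normalized AUC ratio.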
# [3] = Single-dose oral toxicokinetic study of prodrugs in rats; assay type: in vivo, rat; conditions: for concentration at 24 h / Cmax / AUC / half-life: male, rat, plasma; for concentration at 24 h: oral, read-out: C24 h; for Cmax / AUC / half-life: po; for C24 h: male rats, mean; for half-life: read-out: T1/2 (converted)
# Procedure, shortened: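 Male rats, three per group, received a single oral gavage dose of prodrug salt dissolved in water. Doses were 16, 72 or 267 mg/kg (Iab), 19, 64 or 236 mg/kg (Ibb), and 5, 25 or 200 mg/kg (Icb), all as free acid. Plasma toxicokinetics of prodrug and parent IVa were followed in individual animals.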
# [4] = female, 25 mg/kg, dog 2201F, day 8, Icb 25 mg/kg QD aqueous solution
# [5] = female, po, 25 mg/kg, dog 2201F, day 1, Icb 25 mg/kg (IVc equiv. 20) QD dry-filled capsules
# [6] = female, po, 46 mg/kg, dog 3201F, day 8, Icb 46 mg/kg BID dry-filled capsules
# [7] = female, po, 92 mg/kg, dog 3201F, day 1, Icb 92 mg/kg (IVc equiv. 75) QD dry-filled capsules
# [8] = female, po, 125 mg/kg, dog 4201F, day 8, Icb 125 mg/kg BID dry-filled capsules, emesis
# [9] = female, po, 250 mg/kg, dog 4201F, day 1, Icb 250 mg/kg (IVc equiv. 203) QD dry-filled capsules, emesis
# [10] = male, 25 mg/kg, dog 2101M, day 8, Icb 25 mg/kg QD aqueous solution
# [11] = male, po, 25 mg/kg, dog 2101M, day 1, Icb 25 mg/kg (IVc equiv. 20) QD dry-filled capsules
# [12] = male, po, 46 mg/kg, dog 3101M, day 8, Icb 46 mg/kg BID dry-filled capsules
# [13] = male, po, 92 mg/kg, dog 3101M, day 1, Icb 92 mg/kg (IVc equiv. 75) QD dry-filled capsules, emesis
# [14] = male, po, 125 mg/kg, dog 4101M, day 8, Icb 125 mg/kg BID dry-filled capsules, emesis
# [15] = male, po, 250 mg/kg, dog 4101M, day 1, Icb 250 mg/kg (IVc equiv. 203) QD dry-filled capsules, emesis
structure (smiles),measurement,setting,value
COc1cnc(-n2cnc(C)n2)c2[nH]cc(C(=O)C(=O)N3CCN(C(=O)c4ccccc4)CC3)c12 [IVc],time post-second dose at which mean Cmax of parent was achieved,"[1]; dogs, BID dosing of prodrug",1 to 2 h
same,time post-dose at which mean Cmax of parent was achieved,"[1]; dogs, once daily (QD) dosing of prodrug",1 to 2 h
same,AUC(0-inf),[1]; [4],173 µM·h
same,concentration at 24 h,[1]; [4],0.107 µM
same,concentration at 24 h,"[1]; female, oral, 25 mg/kg, dog 2201F, day 1, Icb 25 mg/kg (IVc equiv. 20) QD dry-filled capsules",0.688 µM
same,Cmax,"[1]; female, oral, 25 mg/kg, dog 2201F, day 8, Icb 25 mg/kg QD aqueous solution",46.8 µM
same,concentration at 24 h,"[1]; female, oral, 46 mg/kg, dog 3201F, day 8, Icb 46 mg/kg BID dry-filled capsules",0.307 µM
same,concentration at 24 h,"[1]; female, oral, 92 mg/kg, dog 3201F, day 1, Icb 92 mg/kg (IVc equiv. 75) QD dry-filled capsules",0.202 µM
same,concentration at 24 h,"[1]; female, oral, 125 mg/kg, dog 4201F, day 8, Icb 125 mg/kg BID dry-filled capsules",1.96 µM
same,concentration at 24 h,"[1]; female, oral, 250 mg/kg, dog 4201F, day 1, Icb 250 mg/kg (IVc equiv. 203) QD dry-filled capsules",0.704 µM
same,AUC(0-inf),[1]; [5],122 µM·h
same,Cmax,[1]; [5],24.6 µM
same,AUC(0-inf),[1]; [6],490 µM·h
same,Cmax,[1]; [6],104 µM
same,AUC(0-inf),[1]; [7],730 µM·h
same,Cmax,[1]; [7],157 µM
same,AUC(0-inf),[1]; [8],596 µM·h
same,Cmax,[1]; [8],96.9 µM
same,AUC(0-inf),[1]; [9],523 µM·h
same,Cmax,[1]; [9],88.9 µM
same,AUC(0-inf),[1]; [10],362 µM·h
same,concentration at 24 h,[1]; [10],0.547 µM
same,concentration at 24 h,"[1]; male, oral, 25 mg/kg, dog 2101M, day 1, Icb 25 mg/kg (IVc equiv. 20) QD dry-filled capsules",0.008 µM
same,Cmax,"[1]; male, oral, 25 mg/kg, dog 2101M, day 8, Icb 25 mg/kg QD aqueous solution",59.4 µM
same,concentration at 24 h,"[1]; male, oral, 46 mg/kg, dog 3101M, day 8, Icb 46 mg/kg BID dry-filled capsules",10.6 µM
same,concentration at 24 h,"[1]; male, oral, 92 mg/kg, dog 3101M, day 1, Icb 92 mg/kg (IVc equiv. 75) QD dry-filled capsules",1.9 µM
same,concentration at 24 h,"[1]; male, oral, 125 mg/kg, dog 4101M, day 8, Icb 125 mg/kg BID dry-filled capsules",54.2 µM
same,concentration at 24 h,"[1]; male, oral, 250 mg/kg, dog 4101M, day 1, Icb 250 mg/kg (IVc equiv. 203) QD dry-filled capsules",2.61 µM
same,AUC(0-inf),[1]; [11],365 µM·h
same,Cmax,[1]; [11],65.1 µM
same,AUC(0-inf),[1]; [12],1140 µM·h
same,Cmax,[1]; [12],121 µM
same,AUC(0-inf),[1]; [13],820 µM·h
same,Cmax,[1]; [13],117 µM
same,AUC(0-inf),[1]; [14],3780 µM·h
same,Cmax,[1]; [14],226 µM
same,AUC(0-inf),[1]; [15],739 µM·h
same,Cmax,[1]; [15],92.6 µM
same,AUCtot,"[2]; PO IVc 5 mg/kg, historical IVc",111 ± 25 µM·h
same,bioavailability,"[2]; Sprague-Dawley, plasma, historical parent, PO 5 mg/kg, read-out: Bioavailability (%)",82%
same,Tmax,"[2]; Sprague-Dawley, plasma, historical parent, PO 5 mg/kg, read-out: Tmax (hr), PO",4 h
same,bioavailability,"[2]; male, Sprague-Dawley, plasma, oral prodrug, calculated from historical IV data of parent, read-out: Bioavailability (%) of parent from prodrug",80%
same,bioavailability,"[2]; male, Sprague-Dawley, plasma, oral, […], read-out: Bioavailability",80%
same,Tmax,"[2]; male, Sprague-Dawley, plasma, parent after oral prodrug (~5-6 mg/kg parent equivalent), read-out: Tmax (hr), PO",0.8 h
same,Tmax,"[2]; male, Sprague-Dawley, plasma, po, […], read-out: Tmax",0.8 ± 0.3 h
same,AUC,"[2]; plasma, iv, 1 mg/kg, read-out: AUCtot",27 ± 4 µM·h
same,MRT,"[2]; plasma, iv, 1 mg/kg, read-out: MRT",4.5 ± 0.77 h
same,Vd,"[2]; plasma, iv, 1 mg/kg, read-out: Vdss",0.36 ± 0.098 L/kg
same,concentration at 24 hr,"[2]; plasma, oral, 5 mg/kg, read-out: C-24 hr",0.19 ± 0.048 µM
same,bioavailability,"[2]; plasma, po, 5 mg/kg, read-out: Bioavailability",82%
same,Cmax,"[2]; plasma, po, 5 mg/kg",13 ± 3.6 µM
same,Tmax,"[2]; plasma, po, 5 mg/kg, read-out: Tmax",4 h
same,bioavailability,"[2]; plasma, po, range over rats, dogs and monkeys, read-out: oral bioavailabilities of parent after administration of prodrug",80 to 122%
same,concentration at 24 h,"[3]; CD, 5 mg/kg",0.029 µM
same,concentration at 24 h,"[3]; CD, 25 mg/kg",0.35 µM
same,concentration at 24 h,"[3]; CD, 200 mg/kg",58 µM
same,Cmax,"[3]; CD, 5 mg/kg",29 µM
same,AUC,"[3]; CD, 5 mg/kg, read-out: AUC from zero to ∞",109 µM·h
same,Cmax,"[3]; CD, 25 mg/kg",98 µM
same,AUC,"[3]; CD, 25 mg/kg, read-out: AUC from zero to ∞",586 µM·h
same,AUC,"[3]; CD, 200 mg/kg",2920 µM·h
same,Cmax,"[3]; CD, 200 mg/kg",281 µM
same,time post-dose at which mean maximum plasma concentration (Cmax) was achieved,"[3]; rats, single oral dose of prodrug",≤ 1.7 h
"O=C(C(=O)N1CCN(C(=O)c2ccccc2)CC1)c1cn(COP(=O)(O)O)c2c(-n3ccnn3)ncc(F)c12 [Ibb, [3-[(4-benzoylpiperazin-1-yl)(oxo)acetyl]-4-fluoro-7-(1H-1,2,3-triazol-1-yl)-1H-pyrrolo[2,3-c]pyridin-1-yl]methyl dihydrogen phosphate, L-lysine salt (1:1)]","clinical signs, body weight and food consumption","[1]; dogs, oral prodrug","Other than emesis, there were no clinical signs observed, and there were no effects on body weight and food consumption"
same,emesis,"[1]; dogs, oral prodrug","emesis (white, streaked with red that contained capsule remnants) was observed at about 0.5-1.25 hours after dosing in all dogs given ≧92 mg/kg QD; also recorded: emesis (white or brown) was observed within 2 hours after dosing in all dogs given ≧46 mg/kg BID"
same,prodrug detected in plasma after oral administration,[2]; LLQ = 5 nM,< 10 nM
same,half-life,"[2]; male, Sprague-Dawley, plasma, after IV prodrug, analyte = label, read-out: t1/2 (hr), IV (converted)",0.18 h
same,Cmax,"[2]; male, Sprague-Dawley, plasma, po, 6.6 mg/kg",0.008 ± 0.003 µM
same,Tmax,"[2]; male, Sprague-Dawley, plasma, po, 6.6 mg/kg, read-out: Tmax",0.25 h
same,clearance,"[2]; male, Sprague-Dawley, plasma, prodrug after IV administration, read-out: CLtot (mL/min/kg), IV",19 mL/min/kg
same,Vd,"[2]; male, Sprague-Dawley, plasma, prodrug after IV administration, read-out: Vdss (L/kg), IV",0.1 L/kg
same,C24 h,[3]; single oral dose Ibb 19 mg/kg (IVb molar equiv. 15 mg/kg),<LLQ
same,C24 h,[3]; single oral dose Ibb 64 mg/kg (IVb molar equiv. 51 mg/kg),<LLQ
same,C24 h,[3]; single oral dose Ibb 236 mg/kg (IVb molar equiv. 190 mg/kg),<LLQ
same,Cmax,"[3]; Sprague Dawley, 19 mg/kg",0.027 µM
same,AUC,"[3]; Sprague Dawley, 19 mg/kg, read-out: AUC from zero to last time point",0.03 µM·h
same,half-life,"[3]; Sprague Dawley, 19 mg/kg",1.3 h
same,Cmax,"[3]; Sprague Dawley, 64 mg/kg",0.14 µM
same,AUC,"[3]; Sprague Dawley, 64 mg/kg, read-out: AUC from zero to last time point",0.18 µM·h
same,half-life,"[3]; Sprague Dawley, 64 mg/kg",4.6 h
same,Cmax,"[3]; Sprague Dawley, 236 mg/kg",0.25 µM
same,AUC,"[3]; Sprague Dawley, 236 mg/kg, read-out: AUC from zero to last time point",0.49 µM·h
same,half-life,"[3]; Sprague Dawley, 236 mg/kg",3.6 h
